Reference: patent US20260115336A1, “MOFS WITH BETA-EMITTERS FOR RADIOTHERAPY” (Node Pharma AS, priority 2023, published 2026)

Experiments:
[1] = Retention of Lu177 in the MOF in serum, iTLC; assay type: in vitro ADME; conditions: fetal bovine serum, after 30 minutes
Method: (§1) Radiolabelling was performed by adding 60 kBq of [^177Lu]LuCl3 solution to a 400 μL suspension of UiO-66-(COOH)2 (0.6 mg) in 0.005 mol/L MES buffer (pH 6). A control sample consisting of 60 kBq [^177Lu]LuCl3 in 0.005 mol/L MES buffer was prepared in parallel. The samples were kept at 37° C., under agitation for 24 hours. 35 μL of each sample was dispersed in 400 μL of fetal bovine serum. After 30 minutes, both the radiolabelled-dose and the serum-dose suspensions were subjected to instant thin layer chromatography (iTLC) under the following conditions: 5 μL drops were placed on glass fiber iTLC strips, which were then placed in a TLC chamber with 20 mM sodium citrate (pH 6.5) as mobile phase. Upon completion, the application point and the top of the iTLC strip were measured separately using a Hidex gamma counter.

[2] = Lu177 radiolabelling (adsorption) of the MOF, iTLC; assay type: physicochemical; conditions: 60 kBq [177Lu]LuCl3, 0.005 mol/L MES buffer pH 6, 37° C., 24 hours
Method: as §1

For `[Cl][Lu]([Cl])[Cl]` [LuCl3, [^177Lu]LuCl3], the “Serum retention (retention of Lu in serum)” value [1] was 3% and the “Labelling, RCP (radiochemical purity)” value [2] was 1%.
